The text below walks through data of patent US11091476B2, “Protein kinase inhibitors, preparation method and medical use thereof” (Gan & Lee Pharmaceuticals, priority 2015, dated 2021).

pIC50: −log10 of the molar value.

One assay addresses CDK1/CyclinA2 (Homo sapiens (Human), UniProt P06493). In words: CDK kinase inhibitory activity, ADP-Glo Kinase Assay, CDK1/CyclinA2. It counts as biochemical. How it is done: (§1) Measurement of CDK kinase inhibitory activity of the compounds of this disclosure.
(§2) In vitro inhibitory effect of the compounds of the disclosure on CDK (CDK1, CDK4 and CDK6) kinase activity was tested by the following method.
(§3) 1.1 Instrument and Kit Information
(§4) 1.2 Experimental Preparation • 1.2.1 Preparation of Kinase Reaction Buffer I: The 5×Reaction Buffer A (Promega; V307A-C) provided in the kit was mixed and diluted with MILLI-Q® H2O and 0.1 M DTT (dithiothreitol) to give 4× kinase buffer, and then MILLI-Q® H2O was further added to finally formulate the solution into 1× Kinase buffer.
(§5) 1 μl of 10 mM standard substance stock solution was taken and added to 9 μl of kinase reaction buffer I and mixed well; then 90 μl of kinase reaction buffer I was added and mixed well; then 100 μl of kinase reaction buffer I was added and mixed well. The final concentration was 50 μM. • b. 40 μl of kinase reaction buffer II was added into B2 to B10 of a 96-well plate, and 50 μl of the above solution was added into B1; • c. 10 μl of solution was taken from well B1, added into B2, and mixed well; then 10 μl of the resulting solution was taken and added into B3, and dilution was carried out in sequence to B9, so as to obtain control solutions that are diluted by 5-fold sequentially. • (2) Preparation of test compound solution: • a. Test compound solutions at a certain concentration were taken, respectively, diluted with kinase reaction buffer I to a final concentration of 50 μM compound solution; • b. 40 μl of kinase reaction buffer II was added into H2 to H10 of the 96-well plate; and 50 μl of the above solution was added into H1; • c. 10 μl of solution was taken from well H1, added into H2, and mixed well; then 10 μl of the resulting solution was taken and added into H3, and dilution was carried out in sequence to H9, so as to obtain test compound solutions that are diluted by 5-fold sequentially. • 1.2.4 Preparation of a mixed solution of reaction substrate and ATP: • a. Preparation of ATP solution: • 200 μl of 0.1 mM ATP solution: 2 μl of 10 mM ATP was added to 198 μl of kinase reaction buffer I; • 300 μl of 50 μM ATP solution: 150 μl of kinase reaction buffer I was added to 150 μl of the above 0.1 mM ATP solution; • b. Preparation of 300 μl of reaction substrate solution: • 150 μl 1 μg/μl reaction substrate stock solution was added to 150 μl kinase reaction buffer I, and mixed well; • c. The above a/b solutions were mixed to obtain mixed solutions, respectively.
(§6) 1.3 Experimental process: • 1.3.1: 2 μl of compound solutions of various concentrations were taken, added to a 384-well plate, and centrifuged 3 minutes; • 1.3.2: 4 μl of kinase solution was added to each well, centrifuged at 5000 rpm and 18° C. for 10 minutes, and shaken on a plate shaker for 10 minutes; • 1.3.3: 4 μl of mixed solution of substrate and ATP was added to each well, centrifuged at 5000 rpm and 18° C. for 10 minutes, and shaken on a plate shaker at 37° C. for 90 minutes; • 1.3.4: The 384-well plate was taken out, and allowed to stand to room temperature; • 1.3.5: 10 μl of ADP-GLO™ reagent was added to each well, centrifuged at 5000 rpm and 18° C. for 18 minutes, and shaken on a plate shaker at 25° C. for 40 minutes, and then the reaction was stopped; • 1.3.6: 20 μl of kinase detection reagent was added to each well, centrifuged at 5000 rpm and 18° C. for 10 minutes, and shaken on a plate shaker at 25° C. for 30 minutes; and • 1.3.7: M1000pro MICROPLATE READER was used to read […] values.
(§7) The inhibition rate of each compound at each concentration point was calculated by the formula as follows and curve fitting was performed by GraphPad Prism 5 software to obtain the IC50 value.
On the technique in general: In ADP-Glo the light output rises with the ADP produced.

A further assay addresses CDK6/CyclinD3 (Homo sapiens (Human), UniProt Q00534). In words: CDK kinase inhibitory activity, ADP-Glo Kinase Assay, CDK6/CyclinD3. Type of assay: biochemical. The conditions noted are these: for CDK1/CDK6 / CDK9/CDK6 / Pim-1/CDK6: ratio of IC50s; for CDK1/CDK6: selectivity for CDK6 over CDK1; for CDK9/CDK6: selectivity for CDK6 over CDK9; for Pim-1/CDK6: selectivity for CDK6 over Pim-1. How it is done:
as §1, §2, §3, §4, §5, §6, §7

The target in another assay is CDK9/CyclinD3 (Homo sapiens (Human), UniProt P50750). In words: Kinase inhibitory activity, ADP-Glo Kinase Assay, CDK9/CyclinD3. It counts as biochemical. How it is done: as §3, §4, §5, §6, §7
The target of another assay is Pim-1 (Homo sapiens (Human), UniProt P11309). Nature of the assay: Kinase inhibitory activity on Pim-1. It counts as biochemical. As to the method: as §4, §5, §6, §7
The target of the next assay is CDK4/CyclinE1 (Homo sapiens, UniProt P11802). Conditions: read-out: CDK4/CyclinE1 IC50. As to the method:
as §1, §2, §3, §4
The final concentration was 50 μM. • b. 40 μl of kinase reaction buffer II was added into B2 to B10 of a 96-well plate, and 50 μl of the above solution was added into B1; • c. […]
as §6, §7

Assay [1] has as its system U87-luc orthotopic brain xenograft. In words: Pharmacodynamic study in U87-luc orthotopic brain xenograft model, median survival. It counts as in vivo, BALB/c nude mice. Conditions: Temozolomide 3 mg/kg IP Day 0, 7, 14, 21 and 28; survival time range in brackets. The source says: Pharmacodynamic study of the compound 17 of this disclosure and the combination of compound 17 of the disclosure and temozolomide in a U87-luc orthotopic brain xenograft model
Adult female BALB/c nude mice were used as test animals. A U87-luc orthotopic brain xenograft model was used to study the effect of representative compound 17 of this disclosure on the median survival of female BALB/c nude mice after intragastric administration.
Healthy adult female BALB/c nude mice, 8 mice/group, 6-8 weeks old, weighing 18-22 g, purchased from Shanghai SIPPR-BK Laboratory Animal Co., Ltd., Animal Production License No: 2008001658261; 2008001658263. • 7.2.3 Preparation of the test compounds
An appropriate amount of compound 17 was weighed, and added with 0.1% hydroxyethyl cellulose/0.5% TWEEN®80 as vehicle to 0.3125 mg/ml;
An appropriate amount of Temozolomide sample was weighed, and added with 0.1% CMC-Na+0.25% TWEEN®80 as vehicle to 0.3 mg/ml.
Adult female BALB/c nude mice were anesthetized by intraperitoneal injection of sodium pentobarbital at a dose of 80 mg/kg. To relieve pain, animals were injected subcutaneously with buprenorphine at the time points 30 minutes before operation and 6 hours after operation at a dose of 0.1 mg/kg. Animals were observed after anesthesia until all animals had awakened.
The anesthetized animals were properly fixed, the animals' head skin was sterilized with 70% ethanol, and an approximately 10 mm long incision was made on the right side of the midline from the forehead to the ear line. 3×10^5 U87-luc cells (3 μl, mixture of PBS and Matrigel at a ratio of 4:1) were inoculated at the right frontal lobe that is 2 mm away from the right side of the bregma and is 1 mm away from the front side of the coronal suture in each animal. The incision was sutured with a No. 6 suture, and sterilized with polyvinylpyrrolidone. Animals are kept warm until anabiosis. Six days after tumor cell transplantation, tumor animals were grouped by stratified randomization based on […] signal intensity values, and the average bioluminescence reached 2.812E+07 photons/sec when the groups were administered in groups. Different animal groups were administered at different doses for a total of 35 days.

As to `CC1=Nc2c(F)cc(-c3nc(Nc4ccc(N5CCNCC5)cn4)ncc3F)cc2C12CCCC2` [Example 6, 5-fluoro-4-(7′-fluoro-2′-methylspiro[cyclopentane-1,3′-indol]-5′-yl)-N-(5-(piperazin-1-yl)pyridin-2-yl)pyrimidine-2-amino], the pIC50 against CDK1/CyclinA2 is 6.82; at CDK6/CyclinD3 it was 8.19; against CDK9/CyclinD3, 9.38; on Pim-1, 7.82; at CDK4/CyclinE1, 7.09. The CDK1/CDK6 at CDK6/CyclinD3 worked out at 23.59. The CDK9/CDK6 on CDK6/CyclinD3 worked out at 0.06. Besides, at CDK6/CyclinD3, the Pim-1/CDK6 came out at 2.33.

`CCC1(C)C(C)=Nc2c(F)cc(-c3nc(Nc4ccc(N5CCNCC5)cn4)ncc3F)cc21` (stereo not drawn) [Example 7, 4-(3-ethyl-7-fluoro-2,3-dimethyl-3H-indol-5-yl)-5-fluoro-N-(5-(piperazin-1-yl)pyridin-2-yl)pyrimidine-2-amino]: on CDK6/CyclinD3, the pIC50 is 8.49, the CDK1/CDK6 is recorded as 25.71, the CDK9/CDK6 amounted to 1.40 and the Pim-1/CDK6 is listed as 141.53. Also, the pIC50 on CDK9/CyclinD3 is 8.34. Besides, at Pim-1, the pIC50 was 6.34.

Turning to `CCN1CCN(Cc2ccc(Nc3ncc(F)c(-c4ccc5c(c4)C4(CCCC4)C(C)=N5)n3)nc2)CC1` [Example 9, N-(5-((4-ethylpiperazin-1-yl)methyl)pyridin-2-yl)-5-fluoro-4-(2′-methylspiro [cyclopentane-1,3′-indol]-5′-yl)pyrimidine-2-amino], the pIC50 against CDK1/CyclinA2 was 6.57. For the same molecule, on CDK6/CyclinD3, the pIC50 is 7.69, the CDK1/CDK6 was 13.13, the CDK9/CDK6 worked out at 0.71 and the Pim-1/CDK6 is 8.51. The pIC50 on CDK9/CyclinD3 is 7.84. For the same molecule, at Pim-1, the pIC50 is 6.76.

At CDK1/CyclinA2, `CC1=Nc2c(F)cc(-c3nc(Nc4ccc(C5CCNCC5)cn4)ncc3F)cc2C12CCCC2` [Example 13, 5-Fluoro-4-(7′-fluoro-2′-methylspiro[cyclopentane-1,3′-indol]-5′-yl)-N-(5-(piperidin-4-yl)pyridin-2-yl)pyrimidine-2-amino] gave a pIC50 of 6.49. Also, at CDK6/CyclinD3, the pIC50 was 9.41, the CDK1/CDK6 is given as 838.46, the CDK9/CDK6 is recorded as 6.56 and the Pim-1/CDK6 is given as 5.69. The molecule also gave a pIC50 against CDK9/CyclinD3 of 8.59. Moreover, on Pim-1, the pIC50 is 8.65.

With `CCC1(CC)C(C)=Nc2c(F)cc(-c3nc(Nc4ccc(N5CCN(C)CC5)cn4)ncc3F)cc21` [Example 16, 4-(3,3-diethyl-7-fluoro-2-methyl-3H-indol-5-yl)-5-fluoro-N-(5-(4-methylpiperazin-1-yl)pyridin-2-yl)pyrimidine-2-amino], at CDK6/CyclinD3, the pIC50 is 8.04, the CDK1/CDK6 was 10.61, the CDK9/CDK6 is reported as 1.81 and the Pim-1/CDK6 came to 76.10. In addition, at CDK9/CyclinD3, the pIC50 is 7.79. This molecule also showed a pIC50 against Pim-1 of 6.16.

`CCC1(C)C(C)=Nc2c(F)cc(-c3nc(Nc4ccc(C5CCN(C)CC5)cn4)ncc3F)cc21` (stereo not drawn) [Example 24, 4-(3-ethyl-7-fluoro-2,3-dimethyl-3H-indol-5-yl)-5-fluoro-N-(5-(1-methylpiperidin-4-yl)pyridin-2-yl)pyrimidine-2-amino]: the pIC50 is 7.12 against CDK1/CyclinA2, 7.89 on CDK6/CyclinD3, 8.76 on CDK9/CyclinD3 and 7.14 against Pim-1. At CDK6/CyclinD3, the CDK1/CDK6 is listed as 5.94. Moreover, on CDK6/CyclinD3, the CDK9/CDK6 is listed as 0.13. In addition, on CDK6/CyclinD3, the Pim-1/CDK6 amounted to 5.66.

`Cn1nnc2c(C(N)=O)ncn2c1=O` [Temozolomide, reference compound]: in assay [1], the Medium survival is 47(38-83) days.
